The values below come from patent US4692448A, “Bis(arylpiperazinyl)sulfur compounds” (Boehringer Ingelheim Pharmaceuticals, Inc., priority 1984, dated 1987).

Usually IC50 stands for the midpoint of a concentration-inhibition curve.

Assay [1] has as its system histamine release from human leukocytes (basophils). Briefly: Human basophil assay: inhibition of anti-IgE-induced (IgE-mediated) histamine release. The format is cell-based. Particulars: for IC50: Leukocyte; for inhibition of histamine release in human basophils (in words): IgE-mediated, in vitro. On the procedure:
In the experiments reported by this example compounds in accordance with the invention are evaluated to determine their ability to inhibit the IgE-mediated release of histamine from sensitized peripheral leucocytes (basophils). Separation of leukocytes is accomplished by a modification of the method of L. Lichtenstein and A. Osler, J. Exp. Med. 120: 507 (1964). Heparinized human blood (80-100 ml) is mixed with 20 ml of saline (0.2%) containing 0.6 g of dextrose and 1.2 g of dextran in propylene centrifuge tubes. The mixture is kept at ambient temperature for 60-90 minutes to allow the separation of erythrocytes from the platelet-leukocyte-rich supernate. The supernate is removed and centrifuged for 8 minutes at 10×g in the cold. The leukocyte pellet is washed twice with Tris buffer and finally suspended in 150-180 ml Tris-ACM buffer at 1-2×10^6 cells/ml. The reaction is carried out in 12×75 mm plastic tubes at a total volume of […]. The reaction medium includes 0.05 ml rabbit anti-human IgE, 0.2 ml of the test compound in Tris-ACM buffer at concentrations ranging from 10-1000 μM, and 1.0 ml of the leukocyte suspension. The reaction mixture is incubated in a 37° C. shaking water bath for 60 minutes. Upon completion of the reaction, the tubes are centrifuged and the supernatants collected. The protein is removed from the supernatants by precipitation with 0.2 ml of 8% perchloric acid. Histamine release is measured by the automated fluorometric method of W Siraganian and W. Hook in Chapter 108, pages 808-821 of the Manual of Clinical Immunology, 2nd Edition, edited by R. Rose and H. Friedman, published by the American Society for Microbiology, Washington, D.C., 1980. Percent inhibition is calculated as follows: [formula] The concentration which causes a 50 percent inhibition (1C50) of histamine release is interpolated from a plot of percent inhibition versus the logarithm of drug concentration.

For assay [2], the system named is histamine release from basophils activated by ionophore A-23187. Briefly: Human basophil assay: inhibition of histamine release induced by non-immunological ionophore A-23187. The format is cell-based. Particulars: 1000-fold test dosage range. On the procedure: Separation of leukocytes is accomplished by a modification of the method of L. Lichtenstein and A. Osler, J. Exp. Med. 120: 507 (1964). Heparinized human blood (80-100 ml) is mixed with 20 ml of saline (0.2%) containing 0.6 g of dextrose and 1.2 g of dextran in propylene centrifuge tubes. The mixture is kept at ambient temperature for 60-90 minutes to allow the separation of erythrocytes from the platelet-leukocyte-rich supernate. The supernate is removed and centrifuged for 8 minutes at 10×g in the cold. The leukocyte pellet is washed twice with Tris buffer and finally suspended in 150-180 ml Tris-ACM buffer at 1-2×10^6 cells/ml.
The reaction is carried out in 12×75 mm plastic tubes at a total volume of 1.23 ml. […] The reaction mixture is incubated in a 37° C. shaking water bath for 60 minutes. Upon completion of the reaction, the tubes are centrifuged and the supernatants collected. The protein is removed from the supernatants by precipitation with 0.2 ml of 8% perchloric acid.
Histamine release is measured by the automated fluorometric method of W Siraganian and W. Hook in Chapter 108, pages 808-821 of the Manual of Clinical Immunology, 2nd Edition, edited by R. Rose and H. Friedman, published by the American Society for Microbiology, Washington, D.C., 1980. Percent inhibition is calculated as follows: [formula] […]

Assay [3] concerns lipoxygenase pathway. Kind of assay: Blocking the metabolic conversion of arachidonic acid in the lipoxygenase pathway. Particulars: no method or data given.
Where [4] appears, read: 1 h, human basophils, rabbit anti-human IgE, 37° C., 60 minutes, read-out: IN VITRO INHIBITION OF HISTAMINE RELEASE IC50.

Counter-ions that a name gives are not always drawn. Like-named read-outs stand apart in the source and are kept apart here.

Turning to `N#Cc1ccc(CN2CCN(CCSSCCN3CCN(Cc4ccc(C#N)cc4)CC3)CC2)cc1` [Example 8, 1,1'-(dithiodi-2,1-ethanediyl)bis[4-(4-cyanobenzyl)piperazine] tetrahydrochloride], the IC50 in assay [1] (setting [4]) was 28 µM.

`Clc1ccc(CN2CCCN(CCCSSCCCN3CCCN(Cc4ccc(Cl)cc4)CC3)CC2)cc1` [Example 11, 1,1'-(dithiodi-3,1-propanediyl)bis[4-(4-chlorobenzyl)homopiperizine] tetrahydrochloride]: the “inhibition of histamine release in human basophils (in words)” value (“inhibition of histamine release” below) in assay [1] is “absence of observed activity”. In addition, the IC50 in assay [1] (setting [4]) is above 1000 µM.

On to `Clc1ccc(CN2CCN(CCCSCCCN3CCN(Cc4ccc(Cl)cc4)CC3)CC2)cc1` [Example 5, 1,1'-(thio-3,1-propanediyl) bis-[4-(4-chlorobenzyl)piperazine] tetrahydrochloride], for which the IC50 in assay [1] (setting [4]) is 1.9 µM.

Turning to `c1ccc(CN2CCN(CCCSSCCCN3CCN(Cc4ccccc4)CC3)CC2)cc1` [Example 9, 1,1'-(dithiodi-3,1-propanediyl)bis(4-benzylpiperazine) tetrahydrochloride], in assay [1] (setting [4]), the IC50 turned out to be 13.7 µM.

As to `Clc1ccc(CN2CCN(CCCSCCN3CCN(Cc4ccc(Cl)cc4)CC3)CC2)cc1` [Example 4, {2-[4-(4-chlorobenzyl)piperazin-1-yl)ethyl}{3-[4-(4-chlorobenzyl)piperazin-1-yl]propyl}sulfide tetrahydrochloride], the IC50 in assay [1] (setting [4]) stood at 2.4 µM.

In the case of `Clc1ccc(CN2CCN(CCCSSCCCN3CCN(Cc4ccc(Cl)cc4)CC3)CC2)cc1` [Example 1, 1,1'-(Dithiodi-3,1-propanediyl)bis[4-(4-chlorobenzyl)piperazine]], the IC50 in assay [1] (setting [4]) is 2 µM.

Take `Cc1ccccc1CN1CCN(CCSSCCN2CCN(Cc3ccccc3C)CC2)CC1` [Example 3, 1,1'-(dithiodi-2,1-ethanediyl)bis[4-(2-methylbenzyl)piperazine]tetrahydrochloride]: the IC50 in assay [1] (setting [4]) was determined as 15 µM.

As for `Cl.Cl.Cl.Cl.Clc1ccc(CCCN2CCN(CCSSCCN3CCN(CCCc4ccc(Cl)cc4)CC3)CC2)cc1` [Example 13, 1,1'-(dithiodi-2,1-ethanediyl)bis{4-[3-(4-chlorophenyl)propyl]piperazine} tetrahydrochloride], the “inhibition of histamine release” value in assay [1] is on record as “absence of observed activity”. In assay [1] (setting [4]), the IC50 is above 1000 µM.

Regarding `Cc1ccc(CN2CCN(CCSSCCN3CCN(Cc4ccc(C)cc4)CC3)CC2)cc1` [Example 12, 1,1'-(dithiodi-2,1-ethanediyl)bis[4-(4-methylbenzyl)piperazine] tetrahydrochloride], the IC50 in assay [1] (setting [4]) worked out at 4.7 µM.

Take `Clc1ccc(CN2CCN(CCSSCCN3CCN(Cc4ccc(Cl)cc4)CC3)CC2)cc1` [Example 2, 1,1'-(dithiodi-2,1-ethanediyl)bis[4-(4-chlorobenzyl)piperazine]tetrahydrochloride]: the IC50 in assay [2] came out at 2.67 µM; in assay [1] (Homo sapiens, anti-IgE, further repetition of testing, read-out: IC50 (histamine release), further repetition), 5.29 µM; in assay [1] (Homo sapiens, anti-IgE, range of concentrations up to the limits of its solubility, read-out: IC50 (histamine release)) it was 3.7 µM; in assay [1] (setting [4]), 2.4 µM. The “blocking the metabolic conversion of arachidonic acid in the lipoxygenase pathway (in words)” value in assay [3] is on record as “effective in blocking”.

For `O=S(=O)(CCCN1CCN(Cc2ccc(Cl)cc2)CC1)CCCN1CCN(Cc2ccc(Cl)cc2)CC1` [Example 7, 1,1'-(sulfonyl-3,1-propanediyl) bis[4-(4-chlorobenzyl)piperazine] tetrahydrochloride], the IC50 in assay [1] (setting [4]) is 3.4 µM.

On to `[O-][S+](CCCN1CCN(Cc2ccc(Cl)cc2)CC1)CCCN1CCN(Cc2ccc(Cl)cc2)CC1` [Example 6, 1,1'-(sulfinyl-3,1-propanediyl) bis[4-(4-chlorobenzyl)piperazine] tetrahydrochloride], for which the IC50 in assay [1] (setting [4]) was determined as 5.6 µM.

On to `Cl.Cl.Cl.Cl.Clc1ccc(CCN2CCN(CCCSSCCCN3CCN(CCc4ccc(Cl)cc4)CC3)CC2)cc1` [Example 10, 1,1'-(dithiodi-3,1-propanediyl)-bis [4-(4-chlorophenethyl)piperazine] tetrahydrochloride], for which, in assay [1], the “inhibition of histamine release” value was “absence of observed activity”. The IC50 in assay [1] (setting [4]) was above 1000 µM.
